Values of other authors, collected in patent publication US9913833B2, “Methods of treating developmental disorders using pipradrol” (Ovid Therapeutics Inc., priority 2015, dated 2018).

System: depression
Details: published study on 111 individuals with depression

Structure (SMILES): OC(c1ccccc1)(c1ccccc1)C1CCCCN1 (stereo not shown) [pipradrol]
- efficacy in depression compared with placebo: not superior to placebo
